Assay: mn = molality of the nth substance listed, in mol/kg
Conditions: 298.15 K, 101 kPa, Liquid; for speed of sound: Sing-around technique in a fixed-path interferometer

CC(=O)[O-].[Na+] [sodium ethanoate] + O
Conditions	speed of sound [m/s]
m1 = 0.5	1547.6
m1 = 1	1590.4
m1 = 2	1658
m1 = 4	1761.8

N[C@@H](CO)C(=O)O [L-serine] + O
Conditions	mass density [kg/m3]	speed of sound [m/s]
m1 = 0.1015	1001.52	1503
m1 = 0.1508	1003.67	1506.1
m1 = 0.1958	1005.62	1509
m1 = 0.2564	1008.21	1512.7
m1 = 0.2888	1009.59	1514.9
m1 = 0.3655	1012.8	1519.8

C[C@@H](O)[C@H](N)C(=O)O [L-threonine] + O
Conditions	mass density [kg/m3]	speed of sound [m/s]
m1 = 0.04618	998.993	–
m1 = 0.1013	1001.29	1504.7
m1 = 0.1405	1002.91	1507.7
m1 = 0.1798	1004.51	1510.9
m1 = 0.2227	1006.26	1514.3
m1 = 0.2524	1007.45	1516.6
m1 = 0.2755	1008.38	1518.7

CC(=O)[O-].CC(=O)[O-].[Mg+2] [magnesium acetate] + O
Conditions	speed of sound [m/s]
m1 = 0.5	1571.7
m1 = 1	1630.4
m1 = 1.5	1680.2
m1 = 2	1724.4

From the NIST ThermoML archive (doi:10.1016/j.jct.2006.08.003)
